The text below walks through data of patent US8853490B2 (priority 2010, dated 2014).

Where two headings read alike, the source gives them in different places.

The subject of experiment [1] is Fusarium verticillioides (FVE; isolate MO33). It counts as cell-based.
The test system of experiment [2] is Fusarium graminearum (FGR; isolate 73B ISU). It counts as cell-based.
For experiment [3], the system named is Fusarium verticillioides (FVE; isolate MO33). The following applies: general statement on parent polypeptides; cited from earlier work.
For experiment [4], the system named is Diplodia maydis (DMA; isolate Warren-IN-96). As to conditions: general statement on parent polypeptides; cited from earlier work.
Experiment [5] concerns Fusarium graminearum (FGR; isolate 73B ISU). The following applies: general statement on parent polypeptides; cited from earlier work.
Experiment [6] has as its system Colletotrichum graminicola (CGR; isolate Carroll-IA-99). As to conditions: general statement on parent polypeptides; cited from earlier work.
Experiment [7] relates to Diplodia maydis (DMA; isolate Warren-IN-96). It counts as cell-based.
For experiment [8], the system named is Colletotrichum graminicola (CGR; isolate Carroll-IA-99). The class given is cell-based.

Regarding “LB-9827-3B-25G5: LBNL variant generated through gene shuffling of the LB-9827-1 mature peptide coding sequence (LSKYGGECSRAHNTCTYRKGGKNQVVKCGTAANKKCKSDRHHCEYDDYHKRVDCQTPV; Synthetic peptide LB-9827-3B-25G5)”, in experiment [1], the “In vitro antifungal activity (IC50) against F. verticillioides (FVE)” value (“In vitro antifungal activity (IC50) … (FVE)” below) is on record as 3.8 ppm. The “In vitro antifungal activity (IC50) against F. graminearum (FGR)” value (shortened to “In vitro antifungal activity (IC50) … (FGR)”) in experiment [2] (high salt conditions) was found to be 2.5 ppm.

Consider “LB-9827-3B-21E10: LBNL variant generated through gene shuffling of the LB-9827-1 mature peptide coding sequence (LSKYGGECSRAHNTCTYRKGGKNQVVNCPSAANKKCKSDRHHCEYDEYHKRVDCQTPV; Synthetic peptide LB-9827-3B-21E10)”, for which, in experiment [1], the “In vitro antifungal activity (IC50) … (FVE)” value is reported as 30 ppm. Moreover, the “In vitro antifungal activity (IC50) … (FGR)” value in experiment [2] (high salt conditions) is given as 1.25 ppm.

As to “LB-5220: parent antifungal polypeptide isolated from Penicillium simplicissimum, previously disclosed in U.S. Pat. No. 7,306,946 (LKYTGTCTRANNQCKYKGQNDRDTFVKCPTFANKKCTRDGAPCSFDSYSRAVTCD; listed as Penicillium simplicissimum) [reference compound]”, the “antifungal activity against Fusarium verticillioides (FVE), in words” value in experiment [3] was “exhibit antifungal activity”. Further, the “antifungal activity against Diplodia maydis (DMA), in words” value in experiment [4] is reported as “exhibit antifungal activity”. Moreover, in experiment [5], the “antifungal activity against Fusarium graminearum (FGR), in words” value was “exhibit antifungal activity”. Moreover, in experiment [6], the “antifungal activity against Colletotrichum graminicola (CGR), in words” value is on record as “exhibit antifungal activity”. The “In vitro antifungal activity (IC50) against D. maydis (DMA)” value in experiment [7] (high salt conditions) was 50 ppm; in experiment [7] (low salt conditions), less than 0.1 ppm. Besides, the results for the “In vitro antifungal activity (IC50) … (FGR)” value in experiment [2] (high salt conditions) and in experiment [2] (low salt conditions) were more than 100 ppm and more than 10 ppm, respectively.

On to “LB-5220 (r2 6F2): LBNL variant generated through gene shuffling of the LB-5220 mature peptide coding sequence (LKYTGTCRRANNQCKYKGQNNRDTFVKCPTFANKKCTRDGEKCSFDSYSRAVTCD; LB-5220 (r2-6F2))”, for which the “In vitro antifungal activity (IC50) … (FGR)” value in experiment [2] (high salt conditions) is given as more than 100 ppm; in experiment [2] (low salt conditions) it was more than 10 ppm.

In the case of “LB-9827-3B-25F2: LBNL variant generated through gene shuffling of the LB-9827-1 mature peptide coding sequence (LSKYGGECSREHNTCTYLKGGKNQVVACGSAANKKCKRDRHHCEYDDYHKTVDCQTPV; Synthetic peptide LB-9827-3B-25F2)”, the “In vitro antifungal activity (IC50) … (FVE)” value in experiment [1] was determined as 15 ppm. In addition, in experiment [2] (high salt conditions), the “In vitro antifungal activity (IC50) … (FGR)” value was determined as 2.5 ppm.

As for “LB-9827-3A-11E4: LBNL variant generated through gene shuffling of the LB-9827-1 mature peptide coding sequence (LSKYGGECSRKHNTCTYKKGGKNQIVNCPTAANKRCKTDRHHCEYDEYHRRVDCQTPV; LB-9827-3A-11E4)”, in experiment [1], the “In vitro antifungal activity (IC50) … (FVE)” value came to 15 ppm. Besides, in experiment [2] (high salt conditions), the “In vitro antifungal activity (IC50) … (FGR)” value is on record as 0.63 ppm.

Take “LB-5220 (ps 1B4): LBNL variant generated through gene shuffling of the LB-5220 mature peptide coding sequence (LKYTGTCTRKNNQCKYRGQNNRDTFVKCPTFANKRCTRDGAPCSFDSYSRAVTCD; Synthetic peptide LB-5220 (ps-1B4))”: the “In vitro antifungal activity (IC50) … (FGR)” value in experiment [2] (high salt conditions) is listed as more than 100 ppm; in experiment [2] (low salt conditions), more than 10 ppm.

With “LB-9827-1: parent antifungal polypeptide from the fungus Monascus ruber, previously disclosed in U.S. Pat. No. 7,306,946 (LSKFGGECSLKHNTCTYLKGGKNHVVNCGSAANKKCKSDRHHCEYDEHHKRVDCQTPV; Monascus ruber) [reference compound]”, the “antifungal activity against Fusarium verticillioides (FVE), in words” value in experiment [3] is “exhibit antifungal activity”. Besides, the “antifungal activity against Diplodia maydis (DMA), in words” value in experiment [4] is on record as “exhibit antifungal activity”. Also, the “antifungal activity against Fusarium graminearum (FGR), in words” value in experiment [5] was “exhibit antifungal activity”. In addition, the “In vitro antifungal activity (IC50) against C. graminicola (CGR)” value is 3 ppm in experiment [8] (high salt conditions) and 1.5 ppm in experiment [8] (low salt conditions). For the same substance, the “antifungal activity against Colletotrichum graminicola (CGR), in words” value in experiment [6] is listed as “exhibit antifungal activity”. Further, the “In vitro antifungal activity (IC50) against D. maydis (DMA)” value in experiment [7] (high salt conditions) is recorded as 12 ppm; in experiment [7] (low salt conditions), 1.5 ppm. Further, the figures for the “In vitro antifungal activity (IC50) … (FGR)” value in experiment [2] (high salt conditions) and in experiment [2] (low salt conditions) were 1.5 ppm and less than 0.1 ppm, respectively.

Consider “LB-5220 (r2 5G7): LBNL variant generated through gene shuffling of the LB-5220 mature peptide coding sequence (LKYTGTCRRANNQCKYKGQNNRDTFVKCPTFANKKCTRDGAKCSFDSYSRAVTCD; Synthetic peptide LB-5220 (r2-5G7))”, for which the “In vitro antifungal activity (IC50) … (FGR)” value in experiment [2] (high salt conditions) is more than 100 ppm; in experiment [2] (low salt conditions) it was more than 10 ppm.
